Measurements from PubChem BioAssay (NCI).
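Step 1: Grow cells in 96-well plates. Step 2: Expose to compound for 48 hours at 5 concentrations. Step 3: Interpolate endpoints linearly; if unreached, use highest concentration. At the GI50, growth is halved. The concentration for full growth arrest is given as TGI.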

What was measured:
Experiment in all cases: NCI anticancer screen, dose series, 48 h
HCT-116 colon = tested on: HCT-116 colon
NCI-H226 lung = tested on: NCI-H226 lung
ACHN renal = tested on: ACHN renal
A549 NSCLC = tested on: A549 NSCLC
SK-OV-3 ovarian = tested on: SK-OV-3 ovarian
SR leukemia = tested on: SR leukemia
SK-MEL-28 melanoma = tested on: SK-MEL-28 melanoma
NCI-H23 lung = tested on: NCI-H23 lung
K-562 leukemia = tested on: K-562 leukemia
OVCAR-8 ovarian = tested on: OVCAR-8 ovarian
DU-145 prostate = tested on: DU-145 prostate
EKVX NSCLC = tested on: EKVX NSCLC
TK-10 renal = tested on: TK-10 renal
LOX IMVI melanoma = tested on: LOX IMVI melanoma
RXF 393 renal = tested on: RXF 393 renal
MDA-MB-468 breast = tested on: MDA-MB-468 breast
T-47D breast = tested on: T-47D breast
KM12 colon = tested on: KM12 colon
786-0 renal = tested on: 786-0 renal
NCI-H522 lung = tested on: NCI-H522 lung
MOLT-4 leukemia = tested on: MOLT-4 leukemia
HS 578T breast = tested on: HS 578T breast
HT29 colon = tested on: HT29 colon
HOP-62 NSCLC = tested on: HOP-62 NSCLC
NCI-H460 lung = tested on: NCI-H460 lung
HL-60(TB) leukemia = tested on: HL-60(TB) leukemia
HCT-15 colon = tested on: HCT-15 colon
HCC-2998 colon = tested on: HCC-2998 colon
SN12C renal = tested on: SN12C renal
A498 renal = tested on: A498 renal
SF-295 CNS = tested on: SF-295 CNS
PC-3 prostate = tested on: PC-3 prostate
SF-268 CNS = tested on: SF-268 CNS
NCI/ADR-RES ovarian = tested on: NCI/ADR-RES ovarian
MCF7 breast = tested on: MCF7 breast
UACC-62 melanoma = tested on: UACC-62 melanoma
CCRF-CEM leukemia = tested on: CCRF-CEM leukemia
COLO 205 colon = tested on: COLO 205 colon
CAKI-1 renal = tested on: CAKI-1 renal
MDA-MB-435 = tested on: MDA-MB-435
SW-620 colon = tested on: SW-620 colon
SF-539 CNS = tested on: SF-539 CNS
U251 CNS = tested on: U251 CNS
IGROV1 ovarian = tested on: IGROV1 ovarian
BT-549 breast = tested on: BT-549 breast
RPMI-8226 leukemia = tested on: RPMI-8226 leukemia
OVCAR-4 ovarian = tested on: OVCAR-4 ovarian
UACC-257 melanoma = tested on: UACC-257 melanoma
MALME-3M melanoma = tested on: MALME-3M melanoma
SNB-19 CNS = tested on: SNB-19 CNS
OVCAR-3 ovarian = tested on: OVCAR-3 ovarian
M14 melanoma = tested on: M14 melanoma
SK-MEL-5 melanoma = tested on: SK-MEL-5 melanoma
OVCAR-5 ovarian = tested on: OVCAR-5 ovarian
HOP-92 NSCLC = tested on: HOP-92 NSCLC

NCCCCn1c(SCCc2c[nH]c3ccccc23)nnc1-c1ccc2ccccc2n1
GI50 (HCT-116 colon): 4.74 µM
TGI (HCT-116 colon): 9.31 µM
GI50 (NCI-H226 lung): 5.29 µM
TGI (NCI-H226 lung): 10.8 µM
GI50 (ACHN renal): 5.42 µM
TGI (ACHN renal): 10.3 µM
GI50 (A549 NSCLC): 5.1 µM
TGI (A549 NSCLC): 9.87 µM
GI50 (SK-OV-3 ovarian): 5.69 µM
TGI (SK-OV-3 ovarian): 11.2 µM
GI50 (SR leukemia): 5.88 µM
TGI (SR leukemia): 12.7 µM
GI50 (SK-MEL-28 melanoma): 5.94 µM
TGI (SK-MEL-28 melanoma): 10.8 µM
GI50 (NCI-H23 lung): 5.57 µM
TGI (NCI-H23 lung): 10.5 µM
GI50 (K-562 leukemia): 5.58 µM
TGI (K-562 leukemia): 13.2 µM
GI50 (OVCAR-8 ovarian): 5.63 µM
TGI (OVCAR-8 ovarian): 10.8 µM
GI50 (DU-145 prostate): 6.51 µM
TGI (DU-145 prostate): 12.2 µM
GI50 (EKVX NSCLC): 5.32 µM
TGI (EKVX NSCLC): 10.6 µM
GI50 (TK-10 renal): 5.91 µM
TGI (TK-10 renal): 10.9 µM
GI50 (LOX IMVI melanoma): 5.28 µM
TGI (LOX IMVI melanoma): 10 µM
GI50 (RXF 393 renal): 4.8 µM
TGI (RXF 393 renal): 9.4 µM
GI50 (MDA-MB-468 breast): 4.94 µM
TGI (MDA-MB-468 breast): 9.58 µM
GI50 (T-47D breast): 6.08 µM
TGI (T-47D breast): 14.6 µM
GI50 (KM12 colon): 6.54 µM
TGI (KM12 colon): 12.3 µM
GI50 (786-0 renal): 5.9 µM
TGI (786-0 renal): 10.9 µM
GI50 (NCI-H522 lung): 5.35 µM
TGI (NCI-H522 lung): 10.4 µM
GI50 (MOLT-4 leukemia): 5.47 µM
TGI (MOLT-4 leukemia): 13.1 µM
GI50 (HS 578T breast): 5.6 µM
TGI (HS 578T breast): 14.6 µM
GI50 (HT29 colon): 5.28 µM
TGI (HT29 colon): 10.4 µM
GI50 (HOP-62 NSCLC): 5.35 µM
TGI (HOP-62 NSCLC): 10.5 µM
GI50 (NCI-H460 lung): 6.17 µM
TGI (NCI-H460 lung): 11.7 µM
GI50 (HL-60(TB) leukemia): 4.99 µM
TGI (HL-60(TB) leukemia): 11.4 µM
GI50 (HCT-15 colon): 6.26 µM
TGI (HCT-15 colon): 11.5 µM
GI50 (HCC-2998 colon): 6.01 µM
TGI (HCC-2998 colon): 10.9 µM
GI50 (SN12C renal): 5.6 µM
TGI (SN12C renal): 10.5 µM
GI50 (A498 renal): 6.06 µM
TGI (A498 renal): 11.2 µM
GI50 (SF-295 CNS): 5.65 µM
TGI (SF-295 CNS): 10.7 µM
GI50 (PC-3 prostate): 5.35 µM
TGI (PC-3 prostate): 11.6 µM
GI50 (SF-268 CNS): 5.69 µM
TGI (SF-268 CNS): 12.1 µM
GI50 (NCI/ADR-RES ovarian): 6.29 µM
TGI (NCI/ADR-RES ovarian): 13.4 µM
GI50 (MCF7 breast): 5.38 µM
TGI (MCF7 breast): 10.4 µM
GI50 (UACC-62 melanoma): 5.46 µM
TGI (UACC-62 melanoma): 10.2 µM
GI50 (CCRF-CEM leukemia): 7.21 µM
TGI (CCRF-CEM leukemia): 20.3 µM
GI50 (COLO 205 colon): 4.54 µM
TGI (COLO 205 colon): 9.3 µM
GI50 (CAKI-1 renal): 5.74 µM
TGI (CAKI-1 renal): 11.9 µM
GI50 (MDA-MB-435): 6.27 µM
TGI (MDA-MB-435): 11.8 µM
GI50 (SW-620 colon): 5.51 µM
TGI (SW-620 colon): 11.1 µM
GI50 (SF-539 CNS): 5.85 µM
TGI (SF-539 CNS): 10.6 µM
GI50 (U251 CNS): 5.36 µM
TGI (U251 CNS): 10.2 µM
GI50 (IGROV1 ovarian): 5.84 µM
TGI (IGROV1 ovarian): 11.1 µM
GI50 (BT-549 breast): 5.67 µM
TGI (BT-549 breast): 10.7 µM
GI50 (RPMI-8226 leukemia): 5.41 µM
TGI (RPMI-8226 leukemia): 13.9 µM
GI50 (OVCAR-4 ovarian): 5.75 µM
TGI (OVCAR-4 ovarian): 12 µM
GI50 (UACC-257 melanoma): 5.78 µM
TGI (UACC-257 melanoma): 11 µM
GI50 (MALME-3M melanoma): 5.35 µM
TGI (MALME-3M melanoma): 10.3 µM
GI50 (SNB-19 CNS): 6.3 µM
TGI (SNB-19 CNS): 12.8 µM
GI50 (OVCAR-3 ovarian): 5.16 µM
TGI (OVCAR-3 ovarian): 10.2 µM
GI50 (M14 melanoma): 5.48 µM
TGI (M14 melanoma): 10.4 µM
GI50 (SK-MEL-5 melanoma): 5.84 µM
TGI (SK-MEL-5 melanoma): 10.6 µM
GI50 (OVCAR-5 ovarian): 5.66 µM
TGI (OVCAR-5 ovarian): 10.8 µM
GI50 (HOP-92 NSCLC): 4.59 µM
TGI (HOP-92 NSCLC): 10.5 µM
